Measurements published in US12433952B2, “Antibody-drug conjugates targeting folate receptor alpha and methods of use” (ZYMEWORKS BC INC., priority 2022, dated 2025).
Like-named read-outs stand apart in the source and are kept apart here.

Assays:
Assay in all cases: In vitro cytotoxicity of camptothecin analogues (CellTiter-Glo)
Format in all cases: cell-based
[1] = test system: Calu-3 (lung cancer); settings: Homo sapiens, Calu-3, 96 h, read-out: pIC50 Calu-3 (converted)
Description: (§1) Cytotoxicity of the camptothecin analogues was assessed in vitro as follows.
(§2) In vitro potency was assessed on multiple cancer cell lines: SK-BR-3 (breast cancer), SKOV-3 (ovarian cancer), Calu-3 (lung cancer), ZR-75-1 (breast cancer) and MDA-MB-468 (breast cancer). Serial dilutions of camptothecin analogues were prepared in RPMI 1640+10% FBS, and 20 μL of each dilution was added to 384-well plates. Cells cultured in log-phase growth were detached by brief incubation in 0.05% Trypsin and resuspended in respective culturing media at 20,000 cells/mL (with the exception of ZR-75 cells, which were resuspended at 10,000 cells/mL). 50 μL of cell suspension was then added to the plates containing test articles. Cells were incubated with test articles for 4 d at 37° C. (with the exception of ZR-75 cells, which were incubated for 5 d). Growth inhibition was assessed by CellTiter-Glo® (Promega Corporation, Madison, WI) and luminescence was measured on a plate reader. IC50 values were determined by GraphPad Prism (GraphPad Software, San Diego CA).

[2] = test system: ZR-75-1 (breast cancer); settings: Homo sapiens, ZR-75-1, 120 h, read-out: pIC50 ZR-75 (converted)
Description: as §1, §2

[3] = test system: MDA-MB-468 (breast cancer); settings: Homo sapiens, MDA-MB-468, 96 h, read-out: pIC50 MDA-MB-468 (converted)
Description: as §1, §2

[4] = test system: SK-BR-3 (breast cancer); settings: Homo sapiens, SK-BR-3, 96 h, read-out: pIC50 SKBR-3 (converted)
Description: as §1, §2

[5] = test system: SKOV-3 (ovarian cancer); settings: Homo sapiens, SK-OV-3, 96 h, read-out: pIC50 SKOV-3 (converted)
Description: as §1, §2

| Compound | IC50 ([1]; 4 d incubation) [nM] | IC50 ([2]; 5 d incubation) [nM] | IC50 ([3]; 4 d incubation) [nM] | IC50 ([4]; 4 d incubation) [nM] | IC50 [1] [nM] | IC50 [5] [nM] | IC50 [3] [nM] | IC50 [4] [nM] | IC50 ([5]; 4 d incubation) [nM] | IC50 [2] [nM] |
| --- | --- | --- | --- | --- | --- | --- | --- | --- | --- | --- |
| CC[C@@]1(O)C(=O)OCc2c1cc1n(c2=O)Cc2c-1nc1cc(F)c(OC)cc1c2CN1CCN(C)CC1 [Compound 107, (S)-4-ethyl-8-fluoro-4-hydroxy-9-methoxy-11-((4-methylpiperazin-1-yl)methyl)-1,12-dihydro-14H-pyrano[3′,4′:6,7]indolizino[1,2-b]quinoline-3,14(4H)-dione] | 4.07 | 2.75 | 3.89 | 3.09 | – | – | – | – | – | – |
| CC[C@@]1(O)C(=O)OCc2c1cc1n(c2=O)Cc2c-1nc1cc(F)c(C)cc1c2CN1CCSCC1CO (stereo partly drawn) [Compound 114, (4S)-4-ethyl-8-fluoro-4-hydroxy-11-((3-(hydroxymethyl)thiomorpholino)methyl)-9-methyl-1,12-dihydro-14H-pyrano[3′,4′:6,7]indolizino[1,2-b]quinoline-3,14(4H)-dione] | – | – | – | – | 0.0933 | 0.178 | 0.417 | 0.107 | – | – |
| CC[C@@]1(O)C(=O)OCc2c1cc1n(c2=O)Cc2c-1nc1cc(F)c(C)cc1c2CN1CC2CC1(CO)CO2 (stereo partly drawn) [Compound 115, (4S)-4-ethyl-8-fluoro-4-hydroxy-11-((4-(hydroxymethyl)-2-oxa-5-azabicyclo[2.2.1]heptan-5-yl)methyl)-9-methyl-1,12-dihydro-14H-pyrano[3′,4′:6,7]indolizino[1,2-b]quinoline-3,14(4H)-dione] | 1.29 | – | 4.17 | 2.57 | – | – | – | – | 3.8 | – |
| CC[C@@]1(O)C(=O)OCc2c1cc1n(c2=O)Cc2c-1nc1cc(F)c(C)cc1c2CN1CCS(=O)(=O)CC1CO (stereo partly drawn) [Compound 116, (4S)-4-ethyl-8-fluoro-4-hydroxy-11-((3-(hydroxymethyl)-1,1-dioxidothiomorpholino)methyl)-9-methyl-1,12-dihydro-14H-pyrano[3′,4′:6,7]indolizino[1,2-b]quinoline-3,14(4H)-dione] | 0.794 | – | 9.33 | 7.08 | – | – | – | – | 12.6 | – |
| CC[C@@]1(O)C(=O)OCc2c1cc1n(c2=O)Cc2c-1nc1cc(F)c(C)cc1c2CN1CC2CC(C1)C2O (stereo partly drawn) [Compound 117, (4S)-4-ethyl-8-fluoro-4-hydroxy-11-((6-hydroxy-3-azabicyclo[3.1.1]heptan-3-yl)methyl)-9-methyl-1,12-dihydro-14H-pyrano[3′,4′:6,7]indolizino[1,2-b]quinoline-3,14(4H)-dione] | 0.162 | – | 0.468 | 0.0955 | – | – | – | – | 0.17 | – |
| CC[C@@]1(O)C(=O)OCc2c1cc1n(c2=O)Cc2c-1nc1cc(F)c(C)cc1c2CN1CC(F)(CO)C1 [Compound 118, (S)-4-ethyl-8-fluoro-11-((3-fluoro-3-(hydroxymethyl)azetidin-1-yl)methyl)-4-hydroxy-9-methyl-1,12-dihydro-14H-pyrano[3′,4′:6,7]indolizino[1,2-b]quinoline-3,14(4H)-dione] | 0.933 | – | 1.86 | 1.51 | – | – | – | – | 1.45 | – |
| CC[C@@]1(O)C(=O)OCc2c1cc1n(c2=O)Cc2c-1nc1cc(F)c(C)cc1c2CN1CC(CO)C1 [Compound 119, (S)-4-ethyl-8-fluoro-4-hydroxy-11-((3-(hydroxymethyl)azetidin-1-yl)methyl)-9-methyl-1,12-dihydro-14H-pyrano[3′,4′:6,7]indolizino[1,2-b]quinoline-3,14(4H)-dione] | 1.17 | – | 2.75 | 4.17 | – | – | – | – | 3.72 | – |
| CC[C@@]1(O)C(=O)OCc2c1cc1n(c2=O)Cc2c-1nc1cc(F)c(C)cc1c2CN1CCC(F)(F)C(CO)C1 (stereo partly drawn) [Compound 120, (4S)-11-((4,4-difluoro-3-(hydroxymethyl)piperidin-1-yl)methyl)-4-ethyl-8-fluoro-4-hydroxy-9-methyl-1,12-dihydro-14H-pyrano[3′,4′:6,7]indolizino[1,2-b]quinoline-3,14(4H)-dione] | 0.1 | – | 0.191 | 1.1 | – | – | – | – | 0.251 | – |
| CC[C@@]1(O)C(=O)OCc2c1cc1n(c2=O)Cc2c-1nc1cc(F)c(C)cc1c2CN1C2CCC1(CO)CC2 [Compound 121, (S)-4-ethyl-8-fluoro-4-hydroxy-11-((1-(hydroxymethyl)-7-azabicyclo[2.2.1]heptan-7-yl)methyl)-9-methyl-1,12-dihydro-14H-pyrano[3′,4′:6,7]indolizino[1,2-b]quinoline-3,14(4H)-dione] | – | – | – | – | 0.145 | 0.195 | 0.269 | 0.148 | – | – |
| CC[C@@]1(O)C(=O)OCc2c1cc1n(c2=O)Cc2c-1nc1cc(F)c(C)cc1c2CNS(=O)(=O)Cc1ccc([N+](=O)[O-])cc1 [Compound 124, (S)—N-((4-ethyl-8-fluoro-4-hydroxy-9-methyl-3,14-dioxo-3,4,12,14-tetrahydro-1H-pyrano[3′,4′:6,7]indolizino[1,2-b]quinolin-11-yl)methyl)-1-(4-nitrophenyl) methanesulfonamide] | 1.7 | 2.29 | 3.47 | 1.2 | – | – | – | – | – | – |
| CC[C@@]1(O)C(=O)OCc2c1cc1n(c2=O)Cc2c-1nc1cc(F)c(OC)cc1c2CNS(=O)(=O)CCO [Compound 130, (S)—N-((4-ethyl-8-fluoro-4-hydroxy-9-methoxy-3,14-dioxo-3,4,12,14-tetrahydro-1H-pyrano[3′,4′:6,7]indolizino[1,2-b]quinolin-11-yl)methyl)-2-hydroxyethane-1-sulfonamide] | 1.66 | – | 6.46 | 14.8 | – | – | – | – | 24 | – |
| CC[C@@]1(O)C(=O)OCc2c1cc1n(c2=O)Cc2c-1nc1cc(F)c(C)cc1c2CNS(N)(=O)=O [Compound 131, (S)—N-((4-ethyl-8-fluoro-4-hydroxy-9-methyl-3,14-dioxo-3,4,12,14-tetrahydro-1H-pyrano[3′,4′:6,7]indolizino[1,2-b]quinolin-11-yl)methyl)methanesulfamide] | – | – | – | – | 9.12 | – | 9.12 | 1.05 | – | 0.955 |
| CC[C@@]1(O)C(=O)OCc2c1cc1n(c2=O)Cc2c-1nc1cc(F)c(OC)cc1c2CNC(=O)NCc1ccc(N)cc1 [Compound 135, (S)-1-(4-aminobenzyl)-3-((4-ethyl-8-fluoro-4-hydroxy-9-methoxy-3,14-dioxo-3,4,12,14-tetrahydro-1H-pyrano[3′,4′:6,7]indolizino[1,2-b]quinolin-11-yl)methyl)urea] | – | – | – | – | – | – | 10.7 | 12.3 | – | 13.2 |
| CC[C@@]1(O)C(=O)OCc2c1cc1n(c2=O)Cc2c-1nc1cc(F)c(OC)cc1c2CNC(=O)NCCO [Compound 137, (S)-1-((4-ethyl-8-fluoro-4-hydroxy-9-methoxy-3,14-dioxo-3,4,12,14-tetrahydro-1H-pyrano[3′,4′:6,7]indolizino[1,2-b]quinolin-11-yl)methyl)-3-(2-hydroxyethyl)urea] | 63.1 | 18.6 | 28.2 | 17 | – | – | – | – | – | – |
| CC[C@@]1(O)C(=O)OCc2c1cc1n(c2=O)Cc2c-1nc1cc(F)c(N)cc1c2CNC(C)=O [Compound 147, (S)—N-((9-amino-4-ethyl-8-fluoro-4-hydroxy-3,14-dioxo-3,4,12,14-tetrahydro-1H-pyrano[3′,4′:6,7]indolizino[1,2-b]quinolin-11-yl)methyl)acetamide] | 21.4 | – | 21.4 | 5.13 | – | – | – | – | 43.7 | – |
| CC[C@@]1(O)C(=O)OCc2c1cc1n(c2=O)Cc2c-1nc1cc(F)c(N)cc1c2CN1CCCCC1 [Compound 148, (S)-9-amino-4-ethyl-8-fluoro-4-hydroxy-11-(piperidin-1-ylmethyl)-1,12-dihydro-14H-pyrano[3′,4′:6,7]indolizino[1,2-b]quinoline-3,14(4H)-dione] | 0.204 | 0.219 | 0.204 | 0.324 | – | – | – | – | – | – |
| CC[C@@]1(O)C(=O)OCc2c1cc1n(c2=O)Cc2c-1nc1cc(F)c(N)cc1c2CN=[N+]=[N-] [Compound 152, (S)-9-amino-11-(azidomethyl)-4-ethyl-8-fluoro-4-hydroxy-1,12-dihydro-14H-pyrano[3′,4′:6,7]indolizino[1,2-b]quinoline-3,14(4H)-dione] | – | – | – | – | 1.48 | 2.88 | 5.01 | 3.24 | – | – |
| CC[C@@]1(O)C(=O)OCc2c1cc1n(c2=O)Cc2c-1nc1cc(F)c(N)cc1c2CN1CCN(S(=O)(=O)c2ccccc2)CC1 [Compound 153, (S)-9-amino-4-ethyl-8-fluoro-4-hydroxy-11-((4-(phenylsulfonyl)piperazin-1-yl)methyl)-1,12-dihydro-14H-pyrano[3′,4′:6,7]indolizino[1,2-b]quinoline-3,14(4H)-dione] | 0.115 | – | – | 0.513 | – | – | – | – | 0.933 | – |
